# Experimental data taken from patent publication US20070196277A1, “Compositions and Methods for the Direct Therapy of Tumors” (priority 2006, published 2007).
# Where two headings read alike, the source gives them in different places.
# Key:
# [1] = cited from earlier work
# [2] = cited from earlier work; remark: listed apart in the source
# [3] = system: Walker Carcinosarcoma 256 tumors; conditions: cited from earlier work
# [4] = system: intracerebral T9 gliosarcoma tumors; conditions: same dose delivered systemically; cited from earlier work
# [5] = powder, light-protected container, room temperature; cited from earlier work
# [6] = cited from earlier work; remark: listed apart in the source
# [7] = biological target: T1, dihydrouracil dehydrogenase (Homo sapiens, UniProt Q12882); conditions: cited from earlier work
# T1 sequence (Q12882 4-1025): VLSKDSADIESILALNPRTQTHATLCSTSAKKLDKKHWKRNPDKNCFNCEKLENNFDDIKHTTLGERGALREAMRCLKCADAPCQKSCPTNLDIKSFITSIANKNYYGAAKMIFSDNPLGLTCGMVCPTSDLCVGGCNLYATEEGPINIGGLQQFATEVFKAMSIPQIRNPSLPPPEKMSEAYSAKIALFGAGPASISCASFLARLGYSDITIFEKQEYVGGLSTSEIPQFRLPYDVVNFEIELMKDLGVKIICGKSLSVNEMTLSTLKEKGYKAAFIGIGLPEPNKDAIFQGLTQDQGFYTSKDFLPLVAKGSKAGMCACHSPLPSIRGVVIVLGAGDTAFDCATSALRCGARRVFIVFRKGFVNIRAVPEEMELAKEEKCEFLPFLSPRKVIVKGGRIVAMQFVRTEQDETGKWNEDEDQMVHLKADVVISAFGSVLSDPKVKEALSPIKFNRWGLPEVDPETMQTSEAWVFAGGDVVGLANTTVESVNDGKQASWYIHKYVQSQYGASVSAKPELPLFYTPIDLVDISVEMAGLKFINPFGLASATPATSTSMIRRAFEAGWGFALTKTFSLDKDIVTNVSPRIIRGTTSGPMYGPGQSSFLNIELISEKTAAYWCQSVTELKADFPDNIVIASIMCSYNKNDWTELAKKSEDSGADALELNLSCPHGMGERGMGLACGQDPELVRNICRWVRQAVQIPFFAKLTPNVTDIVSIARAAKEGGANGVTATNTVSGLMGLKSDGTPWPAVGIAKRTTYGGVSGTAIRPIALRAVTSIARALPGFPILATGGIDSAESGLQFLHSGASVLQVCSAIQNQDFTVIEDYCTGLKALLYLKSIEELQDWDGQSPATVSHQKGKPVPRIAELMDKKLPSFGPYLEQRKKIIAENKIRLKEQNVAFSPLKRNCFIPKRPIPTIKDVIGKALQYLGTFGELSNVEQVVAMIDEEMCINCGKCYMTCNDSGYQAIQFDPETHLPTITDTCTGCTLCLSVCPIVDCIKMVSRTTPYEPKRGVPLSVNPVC
# marrow cells = conditions: in vitro human bone marrow assay; cited from earlier work
# cat brain = system: cat brain
# Source text: This conversion is based upon comparison of the cat brain (approximately 20 gms) and human brain (approximately 1350 gms).
# rat brain = system: rat brain
# Source text: This conversion is based upon comparison of the mass of the rat brain (approximately 2.5 gms) and human brain (approximately 1350 gms).
# [8] = cited from earlier work; remark: listed apart in the source
smiles,measurement,setting,value
"O=NN(CCCl)C(=O)NCCCl [BCNU, 1,3-bis(2-chloroethyl)-1-nitrosourea]",half life in serum,[1],about 15 minutes
same,blood-brain barrier passage,[2]; in vivo,crosses the blood-brain barrier quite effectively
same,total dose excreted as respiratory CO2,[2]; in vivo,about 10%
same,intact BCNU in serum,"[2]; intravenous, after 60 minutes",little intact BCNU
same,antitumor efficacy,"[3]; aqueous vehicle, injected intratumorally","had antitumor efficacy, but far less than the same BCNU dose formulated in ethanol"
same,therapeutic benefit,"[3]; systemic administration, same dose (25 mg/kg)",no therapeutic benefit
same,cures,[4],no cures
same,increase in life span,[4],no increase in life span
"Oc1ncc(I)c(O)n1 [IUra, 2,4-dihydroxy-5-iodopyrimidine]",storage stability,[5],1 year
same,apparent Michaelis constant of disappearance from plasma,"[6]; after the infusion, nonlinear",30 mumol/L
same,maximum plasma IUra concentration,[6]; following infusion of 500 to 1200 mg/m^2 of IdUrd,100 mumol/L
same,plasma IUra relative to simultaneous IdUrd plasma concentration,[6]; following infusion of IdUrd,about 10 times
same,inhibition of dihydrouracil dehydrogenase,[7],competitive inhibitor
"O=c1[nH]c(=O)n([C@H]2C[C@H](O)[C@@H](CO)O2)cc1I [IdUrd, 5-iodo-2′-deoxyuridine]",cytotoxicity to marrow cells relative to IUra,marrow cells,at least 100 times
CCO [ethanol],maximally tolerated volume with no apparent neurologic deficit,"cat brain; cat brain, unpublished data",0.4 ml
same,maximally tolerated volume extrapolated to normal human brain,"cat brain; from cat, by brain mass 20 gms vs 1350 gms",27 mL
same,maximally tolerated volume extrapolated to normal human brain,"rat brain; from rat, by brain mass 2.5 gms vs 1350 gms",10.8 mL
same,maximally tolerated volume with no apparent neurologic deficit,rat brain; rat brain,20 μl
"CC(C)NC(C)Cc1ccc(I)cc1 (stereo not drawn) [iofetamine, N-isopropyl-p-iodoamphetamine]","plasma elimination half-time, first phase",[8]; biphasic elimination,1.6 ± 1.2 h
same,"plasma elimination half-time, second phase",[8]; biphasic elimination,10.9 ± 6.1 h
same,blood-brain barrier passage,[8]; in vivo,crosses the intact blood-brain barrier
